Laboratory results published in patent publication EP4640240A1, “PEPTIDE-BASED RADIOPHARMACEUTICALS FOR NON-INVASIVE IMAGING OF THE FUNCTIONAL LIVER RESERVE” (Medizinische Universität Innsbruck, priority 2024, dated 2025).
Where two headings read alike, the source gives them in different places.

How the values were obtained:
[1] = Stability in human blood serum (radio-HPLC); type: in vitro ADME; conditions: 37 °C
Description: Ligand stability in human blood serum (n = 2) and PBS (pH = 6.5) (n = 1) was determined for different time points (2 min, 30 min, 60 min, 120 min). Therefore, approx. 5 MBq of radioligand was added to 1 mL of fresh human serum at 37 °C or PBS at rt. At each given time point 100 µL of the mixture were transferred to a 1.5 mL Eppendorf tube containing 100 µL of acetonitrile. The vial was vortexed and centrifuged for 2 min at 14,000 1/min before 100 µL of the supernatant were diluted with 200 µL of water and injected into analytical radio-HPLC. The PBS solution was directly injected into the radio-HPLC. Ligand stability was determined by integrating the areas of the signals in the radio chromatogram in relation to the signal of the intact ligand.

[2] = Protein binding in human serum (MicroSpin G-50 columns); type: in vitro ADME; conditions: fresh human serum, 37 °C, n=3
Description: Protein binding was determined for different time points (2 min, 30 min, 60 min, 120 min) in triplicates using Sephadex MicroSpin G-50 columns (GE-Healthcare, Chicago, Illinois, USA). The columns were spun initially at 20,000 rcf for 1 min to remove the storage buffer. Then approx. 5 MBq of radioligand was added to 1 mL of fresh human serum and incubated at 37 °C. At each given timepoint 25 µL of the mixture was loaded on to the column, which was then spun at 20,000 rcf for 1 min. The activity content on the column (free radioligand) and in the filtrate (protein bound fraction) was quantified in a γ-counter.

[3] = Partition coefficient logD (n-octanol/PBS); type: physicochemical; conditions: n=6
Description: For determination of logarithmic partition coefficients (logD) n-Octanol (500 µL) and PBS (500 µL) were pipetted into eight 1.5 mL Protein Low-Bind Eppendorf tubes followed by addition of 300 kBq of labelled compound. The vials were vortexed for 5 min at 1,500 1/min and then centrifuged for 5 min at 20,000 rcf (Eppendorf Centrifuge 5424). Aliquots of 100 µL were taken out of each phase and the amount of activity was quantified in a γ-counter (Perkin Elmer 2480 Wizard2 3"; Waltham, Massachusetts, USA).

[4] = Biodistribution studies in BALB/c mice; type: in vivo; conditions: for tissue uptake at 10 min / tissue uptake at 0.5 h / tissue uptake at 1 h: female, mouse, iv, total radioactivity, healthy BALB/c mice, 0.1 nmol i.v.; for tissue uptake at 10 min: 10 min p.i.; for tissue uptake at 0.5 h: 30 min p.i.; for tissue uptake at 1 h: 60 min p.i.
Description: For biodistribution studies 6-week-old female BALB/c mice (n=3) were injected with 0.1 nmol (100 µL, approx. 1 MBq) of labelled compound via the lateral tail vein and sacrificed after 10, 30, or 60 min by cervical dislocation. The mice were dissected, blood and organs (spleen, pancreas, stomach, intestine, liver, kidney, heart, lung, muscle and bone) were weighed and their activity measured in a γ-counter. For blocking experiments, mice were co-injected with 27.7 µmοl N-acetylgalactose.

[5] = Blood, read-out: Biodistribution data, Blood
[6] = Femur, read-out: Biodistribution data, Femur
[7] = Heart, read-out: Biodistribution data, Heart
[8] = Intestine, read-out: Biodistribution data, Intestine
[9] = Kidneys, read-out: Biodistribution data, Kidneys
[10] = Liver, read-out: Biodistribution data, Liver
[11] = Lung, read-out: Biodistribution data, Lung
[12] = Muscle, read-out: Biodistribution data, Muscle
[13] = Pancreas, read-out: Biodistribution data, Pancreas
[14] = Spleen, read-out: Biodistribution data, Spleen
[15] = Stomach, read-out: Biodistribution data, Stomach

## NC(=O)CNC(=O)CNC(=O)[C@H](CCCCNC(=O)CCCCc1cn(C2O[C@H](CO)[C@H](O)[C@H](O)[C@H]2O)nn1)NC(=O)CNC(=O)CNC(=O)[C@H](CCCCNC(=O)CCCCc1cn(C2O[C@H](CO)[C@H](O)[C@H](O)[C@H]2O)nn1)NC(=O)CNC(=O)CNC(=O)[C@H](CCCCNC(=O)CCCCc1cn(C2O[C@H](CO)[C@H](O)[C@H](O)[C@H]2O)nn1)NC(=O)CCCNC(=O)CC[C@H](C(=O)O)N1CCN(CC(=O)O)CCN(CC(=O)O)CC1 (stereo partly shown) [[68Ga]Ga-TriLysan, metal not drawn]
[1]; 2 min, n=2, read-out: Serum stability (% of intact ligand)
  remaining at 2 min: 99.9%
[1]; 30 min, n=2, read-out: Serum stability (% of intact ligand)
  remaining at 0.5 h: 99.9%
[1]; 60 min, n=2, read-out: Serum stability (% of intact ligand)
  remaining at 1 h: 99.9%
[1]; 120 min, n=2
  Serum stability (% of intact ligand): 99.9 ± 0%
[2]; 2 min
  fraction unbound at 2 min, 5 MBq/mL: 0.82
[2]; 30 min
  fraction unbound at 30 min, 5 MBq/mL: 0.798
[2]; 60 min
  fraction unbound at 60 min, 5 MBq/mL: 0.831
[2]; 120 min
  fraction unbound: 0.857 ± 0.126
[3]
  logD: -3.52 ± 0.03
[4]; BALB/c mice, comparison with ^99mTc-GSA
  activity accumulation in the liver (in words): low accumulation
[4]; [5]
  tissue uptake at 10 min: 3.64 ± 0.08 %ID/g
  tissue uptake at 0.5 h: 1.6 ± 0.17 %ID/g
  tissue uptake at 1 h: 0.27 ± 0.01 %ID/g
[4]; [6]
  tissue uptake at 10 min: 0.89 ± 0.32 %ID/g
  tissue uptake at 0.5 h: 0.39 ± 0.02 %ID/g
  tissue uptake at 1 h: 0.11 ± 0.01 %ID/g
[4]; [7]
  tissue uptake at 10 min: 1.41 ± 0.01 %ID/g
  tissue uptake at 0.5 h: 0.63 ± 0.04 %ID/g
  tissue uptake at 1 h: 0.15 ± 0.01 %ID/g
[4]; [8]
  tissue uptake at 10 min: 1.24 ± 0.26 %ID/g
  tissue uptake at 0.5 h: 1.13 ± 0.02 %ID/g
  tissue uptake at 1 h: 1.04 ± 0.26 %ID/g
[4]; [9]
  tissue uptake at 10 min: 7.56 ± 1.35 %ID/g
  tissue uptake at 0.5 h: 4.99 ± 0.02 %ID/g
  tissue uptake at 1 h: 1.99 ± 0.34 %ID/g
[4]; [10]
  tissue uptake at 10 min: 9.45 ± 1.58 %ID/g
  tissue uptake at 0.5 h: 9.44 ± 1.99 %ID/g
  tissue uptake at 1 h: 9.19 ± 0.27 %ID/g
[4]; [11]
  tissue uptake at 10 min: 2.56 ± 0.17 %ID/g
  tissue uptake at 0.5 h: 1.15 ± 0.11 %ID/g
  tissue uptake at 1 h: 0.47 ± 0.06 %ID/g
[4]; [12]
  tissue uptake at 10 min: 0.9 ± 0.05 %ID/g
  tissue uptake at 0.5 h: 0.4 ± 0.04 %ID/g
  tissue uptake at 1 h: 0.12 %ID/g
[4]; [13]
  tissue uptake at 10 min: 0.97 ± 0.04 %ID/g
  tissue uptake at 0.5 h: 0.44 %ID/g
  tissue uptake at 1 h: 0.17 ± 0.01 %ID/g
[4]; [14]
  tissue uptake at 10 min: 1 ± 0.01 %ID/g
  tissue uptake at 0.5 h: 0.42 ± 0.02 %ID/g
  tissue uptake at 1 h: 0.16 %ID/g
[4]; [15]
  tissue uptake at 10 min: 1.55 ± 0.24 %ID/g
  tissue uptake at 0.5 h: 0.88 ± 0.09 %ID/g
  tissue uptake at 1 h: 0.31 ± 0.05 %ID/g
